Columns and labels:
thymus gland cells = assay: Anti-glucocorticoid activity test, [3H]-TdR incorporation in rat thymus gland cells; format: cell-based; settings: for Antagonism against dexamethasone (incorporation rate of [3H]-TdR): n = 4
Method: Clean female SD rats, body weight 200-250 g, are fed with certain quantity of food and freely drink water. The temperature is controlled at about 24° C. and an illumination cycle are for 11 hours by day and 13 hours at night. All animals are observed for 1 week before experiment. Rats are anesthetized with ethyl ether. Incisions are made on two sides below costal arch of ribs on dorsal position of rats to extirpate adrenal glands. The rats are fed with physiological saline after operation. On the seventh day, animals are acutely executed. Take out thymus gland to place in to HBSS buffer solution, wash twice, remove connective tissue, cut the tissue with scissors, lightly grind with homogenizer, filter with three layers of gauze, and centrifuge the filtrate for 5 min (500 rpm). Wash the precipitated cells twice with HBSS, re-suspend the cells in RPMI1640 culture medium for cell count and cell survival rate determination, and adjust cell concentration to 1×10^7/ml. Determination of anti-glucocorticoid activity: Add tested compound into culture medium, reaction concentration 6×10^−[…], and place in 37° C. incubator for 3 hours. Add thymus gland cells to make cell concentration to become 10^7/ml and incubate at 37° C. for 3 hours. Add 1 μCi of label substance, mix, and incubate for 1 hour. Add 100 μl of ice cold 5% trichloroacetic acid to end the reaction. Place the test tube on ice and wash twice with 2 ml of ice cold 5% trichloroacetic acid and centrifuge twice, 500 rpm×5 min, Add 0.5 ml of 1N NaOH to dissolve the precipitated cells, pipet out the liquid, dry the residue with cotton stick, place into same scintillation bottle, and determine the radioactivity by liquid scintillation counter.
Calculate the incorporation rate of [^3H]-TdR:
In which: T=[^3H]-TdR count without presence of compound, Td=count with presence of compound, and NSB=non-specific adsorption.
Inhibition rate=100%−incorporation rate

[1] = molecular target: T1, human glucocorticoid receptor (Homo sapiens, UniProt P04150); assay: Antagonism on dexamethasone in CV-1 cells cotransfected with GR and luciferase reporter; format: cell-based
T1 construct: expressed in transfected cells; host or cells: CV-1 cells
T1 sequence (P04150 1-777): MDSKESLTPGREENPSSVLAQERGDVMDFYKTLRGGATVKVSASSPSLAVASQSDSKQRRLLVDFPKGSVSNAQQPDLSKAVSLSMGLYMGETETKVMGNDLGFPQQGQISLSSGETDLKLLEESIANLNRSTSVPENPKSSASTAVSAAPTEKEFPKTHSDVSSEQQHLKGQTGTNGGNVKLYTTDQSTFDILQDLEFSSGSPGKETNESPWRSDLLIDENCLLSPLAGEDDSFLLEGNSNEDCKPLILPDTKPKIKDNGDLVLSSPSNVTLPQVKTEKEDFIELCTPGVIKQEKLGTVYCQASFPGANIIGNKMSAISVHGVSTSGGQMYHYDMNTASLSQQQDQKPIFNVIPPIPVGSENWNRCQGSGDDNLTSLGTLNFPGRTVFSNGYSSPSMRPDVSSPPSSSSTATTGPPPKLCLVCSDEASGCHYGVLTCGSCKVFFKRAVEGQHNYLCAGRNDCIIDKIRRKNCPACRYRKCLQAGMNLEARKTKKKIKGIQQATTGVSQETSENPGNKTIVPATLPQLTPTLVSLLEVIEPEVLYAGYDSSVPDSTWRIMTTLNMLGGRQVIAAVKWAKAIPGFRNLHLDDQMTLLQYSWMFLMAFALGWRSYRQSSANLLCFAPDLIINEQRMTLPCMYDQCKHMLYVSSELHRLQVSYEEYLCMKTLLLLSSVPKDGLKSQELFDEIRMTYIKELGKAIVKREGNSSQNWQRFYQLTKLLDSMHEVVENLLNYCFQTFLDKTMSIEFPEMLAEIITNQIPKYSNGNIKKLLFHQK
Method: Inoculate (6×10^5) of CV-1 cells into cell culture dish of 60 mm diameter using phenol red-free low-sugar DMEM containing 10% FBS as culture medium and incubate overnight under 37° C. and 5% CO2. Suction according to 1:5 ratio pipet 2 μg of plasmid carried GR genes and luciferase reporting genes, cotransfect CV-1 cells with FuGene 6 transfection reagent (from Roche), and incubate for 8 hours under above conditions, Inoculate the transfected cells into 96-pore micro culture plate, 8000 cells/100 μl/pore, and incubate cells to adhibit on the wall of dish. […] Discard the culture liquid, wash the cells twice with PBS, and pipet off all residual PBS. fragment the cells by CCLR Assay Kit (from Progema) for 15 min. Add 20 μl of fragmentation solution into 96 pore cell culture plate with white edge and white bottom, add CCLR substrate (from Progema), 100 μl/pore, and immediately detect the chemical luminescence count value caused by activated luciferase on Wallac 1420 Multilabel Counter.

[2] = Rattus norvegicus, read-out: Residual inhibition rate of dexamethasone

## CC#C[C@]1(O)CC[C@H]2[C@@H]3CCC4=CC(=O)CCC4=C3[C@@H](c3ccc(N(C)C4CCCCC4)cc3)C[C@@]21C [Cymipristone, 11β-[4-(N-methyl-N-cyclohexylamino)phenyl]-17α-(1-propynyl)-17β-hydroxyl-4,9-estradiene-3-one]
Thymus gland cells
  Anti-glucocorticoid activity (in words): Result shows that cymipristone has anti-glucocorticoid activity.
Thymus gland cells; [2]
  activity at 0.06 µM: 35.2 ± 2.4%
  activity at 0.2 µM: 57.7 ± 3.5%
  activity at 0.6 µM: 42.2 ± 1.9%
  activity at 2 µM: 64.1 ± 5.6%
Thymus gland cells; cymipristone 2 × 10^−6 mol/L with dexamethasone 6×10^−8 mol/L
  Antagonism against dexamethasone (incorporation rate of [3H]-TdR): 63.6 ± 5.1%
Thymus gland cells; cymipristone 2 × 10^−7 mol/L with dexamethasone 6×10^−8 mol/L
  Antagonism against dexamethasone (incorporation rate of [3H]-TdR): 67.2 ± 2.9%
Thymus gland cells; cymipristone 6 × 10^−7 mol/L with dexamethasone 6×10^−8 mol/L
  Antagonism against dexamethasone (incorporation rate of [3H]-TdR): 76.0 ± 3.8%
Thymus gland cells; cymipristone 6 × 10^−8 mol/L with dexamethasone 6×10^−8 mol/L
  Antagonism against dexamethasone (incorporation rate of [3H]-TdR): 80.0 ± 4.3%
[1]
  IC50: 0.26 ± 0.02 nM
[1]; gene cotransfected live cells
  Antagonistic activity on human glucocorticoid receptor function caused by dexamethasone (in words): significant antagonistic activity

Source: US20090111781A1, “Use of Cymipristone Type Compounds in Aids Treatment” (SHANGHAI THREE-ALLIANCE BIOTECHNOLOGIES CO., LTD., priority 2005, published 2009)
